The text below walks through data of ChEMBL document CHEMBL1201862, “PubChem BioAssay data set” (2004).

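These data come from cells grown in 96-well plates and exposed to compound for 48 hours at five concentrations. The concentration for 50% growth inhibition is given as GI50.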 Active and inactive are the calls of the source. Cut-off read from the data, not from the text of the source: active = GI50 up to about 1.1 µM and inactive = higher.

Among the test systems are 786-0; SR; CAKI-1; EKVX; MCF7; SF-268; UO-31; CCRF-CEM; UACC-257; OVCAR-4; SF-295; MOLT-4; MDA-MB-435; SK-OV-3; SN12C; SNB-19; NCI-H226; Malme-3M; SNB-75.
Common to all, as to test: inhibition of tumour cell growth, NCI panel, 48 h

As for `O=C1/C(=C/Cc2ccco2)N=C(c2ccccc2)N1c1nc2c(Cl)cc(Cl)cc2s1`, the GI50 with 786-0 was 44.8 µM (inactive); with SR, 14.9 µM (inactive); in the test on CAKI-1, 32.6 µM (inactive); in the test on EKVX, 15 µM (inactive); in the test with MCF7 it was 25.6 µM (inactive); in the test on SF-268, 40.3 µM (inactive). Also, the GI50 with UO-31 is 26.2 µM (inactive); with CCRF-CEM, 17.9 µM (inactive); in the test with UACC-257, 34.4 µM (inactive); in the test on OVCAR-4, 21.3 µM (inactive); with SF-295, 32.1 µM (inactive); in the test on MOLT-4, 1.02 µM (active). The GI50 in the test on MDA-MB-435 was 20.5 µM (inactive); in the test with SK-OV-3, 35.2 µM (inactive); in the test on SN12C, 27 µM (inactive); in the test with SNB-19, 34.3 µM (inactive).
In the case of `CC1(C)CC2(C)OC(=N)C1(C#N)C2(C#N)C#N` (stereo not drawn), the GI50 was 2.63 µM (inactive) in the test on 786-0; 1.02 µM (active) in the test with CAKI-1; 5.02 µM (inactive) with EKVX; 8.55 µM (inactive) in the test with MCF7; > 10 µM (inactive) in the test on NCI-H226; 15.6 µM (inactive) in the test with SF-268. The GI50 in the test with UO-31 is 4.26 µM (inactive); in the test on UACC-257, 7.4 µM (inactive); with SF-295, 16.3 µM (inactive); with MOLT-4, 9.53 µM (inactive); in the test with Malme-3M, 12.3 µM (inactive); with MDA-MB-435, 11.9 µM (inactive). Moreover, the GI50 in the test with SK-OV-3 was 53.1 µM (inactive); in the test with SN12C, 10.1 µM (inactive); in the test on SNB-19, 16.2 µM (inactive).
`CC1=NN(C2=NS(=O)(=O)c3ccccc3N2C)C(=O)C1`: the GI50 in the test on 786-0, with CAKI-1, with EKVX, in the test with MCF7, in the test on NCI-H226 and in the test with SF-268 was > 100 µM (inactive) in each case. Moreover, the GI50 with UO-31, with CCRF-CEM, in the test on UACC-257, with OVCAR-4, in the test with SF-295 and with MOLT-4 was > 100 µM (inactive) in each case. Also, the GI50 in the test on MDA-MB-435, in the test on SK-OV-3, in the test on SN12C and with SNB-19 was > 100 µM (inactive) in each case.
In the case of `COP(C)(=O)C1=CCN(C(=O)OCC[Si](C)(C)C)CC1` (stereo not drawn), the GI50 in the test with 786-0, in the test on CAKI-1, in the test on EKVX, in the test with MCF7, with SNB-75 and with NCI-H226 was > 100 µM (inactive) throughout. For the same compound, the GI50 in the test with SF-268, in the test on UO-31, in the test with CCRF-CEM, with UACC-257, in the test with OVCAR-4 and with SF-295 was > 100 µM (inactive) each time. The GI50 in the test on Malme-3M, in the test with MDA-MB-435, in the test with SK-OV-3 and with SNB-19 was > 100 µM (inactive) each time.
Consider `COc1ccc(/C=C2\CCC(CNc3ccc(OC)cc3)C2=O)cc1` (stereo not drawn), for which the GI50 is 9.51 µM (inactive) in the test on 786-0; 18.7 µM (inactive) with CAKI-1; 30.3 µM (inactive) with EKVX; 2.61 µM (inactive) in the test on MCF7; 31.1 µM (inactive) in the test on SNB-75; > 100 µM (inactive) in the test with NCI-H226. The GI50 with SF-268 is 14.6 µM (inactive); in the test with UO-31, 17.9 µM (inactive); in the test on CCRF-CEM, 3.37 µM (inactive); with UACC-257 it was 17.5 µM (inactive); in the test with OVCAR-4, 23.4 µM (inactive); in the test on SF-295 it was 31 µM (inactive). Further, the GI50 in the test on Malme-3M was 22.6 µM (inactive); in the test on MDA-MB-435, 20.8 µM (inactive); with SK-OV-3, > 100 µM (inactive); in the test with SN12C it was 16 µM (inactive); in the test with SNB-19, > 42.6 µM (inactive).
In the case of `O=c1c2c(c1=O)C1(SCCCS1)c1cc(Cl)ccc1O2`, the GI50 in the test with 786-0, in the test with CAKI-1, in the test with EKVX, in the test on MCF7, with SNB-75 and in the test on NCI-H226 was > 100 µM (inactive) in each case. The GI50 in the test on SF-268, in the test on UO-31, in the test on CCRF-CEM, with UACC-257, with OVCAR-4 and in the test on SF-295 was > 100 µM (inactive) each time. Further, the GI50 in the test with MOLT-4, with Malme-3M, with MDA-MB-435, with SK-OV-3, in the test with SN12C and with SNB-19 was > 100 µM (inactive) in each case.
With `Cc1c2c(n3c(nc4ccccc43)c1C#N)N(c1ccc(Cl)cc1)CC2`, the GI50 in the test with 786-0, in the test with CAKI-1, in the test on EKVX, in the test with MCF7, with SNB-75 and in the test on NCI-H226 was > 100 µM (inactive) each time. Further, the GI50 in the test with SF-268, in the test on UO-31, in the test on CCRF-CEM, in the test on UACC-257, in the test with OVCAR-4 and with SF-295 was > 100 µM (inactive) in each case. For the same compound, the GI50 was > 100 µM (inactive) in the test with Malme-3M; > 100 µM (inactive) in the test with MDA-MB-435; 96.4 µM (inactive) with SK-OV-3; > 100 µM (inactive) in the test on SN12C; > 100 µM (inactive) with SNB-19.
For `CC(C)(C)CN1[C@@H]2CCCC[C@H]2N(CC(C)(C)C)P1(=O)C(O)/C=C/c1ccccc1` (stereo partly drawn), the GI50 with 786-0 is 39.4 µM (inactive); in the test with CAKI-1, 59.8 µM (inactive); in the test with EKVX, 50.1 µM (inactive); with MCF7 it was 28.6 µM (inactive); with SNB-75 it was 21.3 µM (inactive); with NCI-H226, 22.7 µM (inactive). Further, the GI50 with SF-268 is 39 µM (inactive); in the test on UO-31, 29.5 µM (inactive); in the test on CCRF-CEM it was 34.3 µM (inactive); in the test with UACC-257, 30.1 µM (inactive); in the test on OVCAR-4, 45.4 µM (inactive); with SF-295, 29.7 µM (inactive). For the same compound, the GI50 was 35.5 µM (inactive) in the test on MOLT-4; 38.5 µM (inactive) in the test with Malme-3M; 42.1 µM (inactive) in the test on MDA-MB-435; 51.8 µM (inactive) in the test with SK-OV-3; 22.2 µM (inactive) in the test with SN12C; 26.8 µM (inactive) in the test with SNB-19.
Consider `C[C@]1(S(=O)(=O)c2ccccc2)C[C@H]2N(Cc3ccccc3)[C@@H]1CCC21OCCO1`, for which the GI50 with 786-0 is > 100 µM (inactive); in the test with CAKI-1 it was > 100 µM (inactive); with EKVX, > 100 µM (inactive); in the test on MCF7 it was 78.9 µM (inactive); in the test on SNB-75, > 100 µM (inactive); in the test with SF-268 it was > 100 µM (inactive). Besides, the GI50 with UO-31 is > 100 µM (inactive); with CCRF-CEM, 49.1 µM (inactive); with UACC-257, 22.3 µM (inactive); in the test with OVCAR-4, 36.3 µM (inactive); with SF-295, 90.4 µM (inactive); in the test with MOLT-4 it was 30.8 µM (inactive). Further, the GI50 with Malme-3M, in the test with MDA-MB-435, in the test with SK-OV-3, with SN12C and with SNB-19 was > 100 µM (inactive) throughout.
Regarding `O=C1C(Cl)=C(Cl)C(Cl)(Cl)C(Cl)C1(Cl)Cl` (stereo not drawn), the GI50 is 37.8 µM (inactive) with 786-0; 20.8 µM (inactive) in the test with EKVX; 22.7 µM (inactive) in the test on MCF7; 21.5 µM (inactive) in the test with SNB-75; 19.6 µM (inactive) with SF-268; 15.8 µM (inactive) in the test with UO-31. In addition, the GI50 with CCRF-CEM is 27.3 µM (inactive); with UACC-257 it was 18.4 µM (inactive); with SF-295 it was 21.2 µM (inactive); in the test with Malme-3M it was 18.8 µM (inactive); with MDA-MB-435 it was 23.1 µM (inactive); in the test on SK-OV-3, 26.2 µM (inactive). The GI50 in the test on SN12C was 20 µM (inactive); with SNB-19 it was 22.4 µM (inactive).
`O[C@@]12Cc3c([nH]c4ccccc34)[C@@H]3Oc4c(-c5ccccc5)ccc5c4[C@@]31CCN(CC1CC1)[C@@H]2C5`: the GI50 with 786-0 was 1.65 µM (inactive); in the test on SR, 2.79 µM (inactive); with CAKI-1 it was 2.97 µM (inactive); in the test with EKVX, 2.01 µM (inactive); in the test with MCF7, 1.83 µM (inactive); with SF-268, 3.42 µM (inactive). In addition, the GI50 in the test on UO-31 is 1.74 µM (inactive); in the test on CCRF-CEM, 2.92 µM (inactive); in the test with UACC-257 it was 1.84 µM (inactive); in the test on OVCAR-4, 2.71 µM (inactive); in the test on SF-295, 1.69 µM (inactive); with MOLT-4 it was 3.07 µM (inactive). Besides, the GI50 with Malme-3M was 1.9 µM (inactive); in the test with MDA-MB-435 it was 1.77 µM (inactive); in the test with SK-OV-3, 2.95 µM (inactive); in the test with SNB-19 it was 1.88 µM (inactive).
Take `CC1OC(O[C@H]2C3C=CO[C@@H](OC4OC(CO)C(O)C(O)C4O)C3[C@@]3(COC(=O)/C=C/c4ccccc4)O[C@@H]23)C(O)C(O)C1O` (stereo partly drawn): the GI50 with 786-0, in the test with CAKI-1, in the test on EKVX, in the test on MCF7, in the test on SNB-75 and with NCI-H226 was > 100 µM (inactive) throughout. Moreover, the GI50 in the test on SF-268, in the test on UO-31, with CCRF-CEM, in the test with UACC-257, in the test with OVCAR-4 and in the test on SF-295 was > 100 µM (inactive) in each case. The GI50 in the test with MOLT-4, in the test with Malme-3M, in the test on MDA-MB-435, with SK-OV-3, with SN12C and in the test with SNB-19 was > 100 µM (inactive) throughout.
